Experimental data published in ChEMBL document CHEMBL1201862, “PubChem BioAssay data set” (2004).
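Dose response: 5 concentrations. Exposure: 48 h. Format: 96-well plates. Endpoint: linear interpolation; highest concentration if not reached. GI50 marks 50% less growth.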 Active and inactive are the calls of the source. Rule as the data show it: active = GI50 up to about 1.1 µM and inactive = higher.

Tests used:
Experiment in all cases: NCI-60 cell line screen, 48 h
SK-MEL-28 = system: SK-MEL-28
TK-10 = system: TK-10
PC-3 = system: PC-3
SNB-75 = system: SNB-75
SW-620 = system: SW-620
NCI-H226 = system: NCI-H226
SNB-19 = system: SNB-19
K562 = system: K562
SR = system: SR
RXF 393 = system: RXF 393
IGROV-1 = system: IGROV-1
SF-295 = system: SF-295
SK-OV-3 = system: SK-OV-3
SF-268 = system: SF-268
CCRF-CEM = system: CCRF-CEM
OVCAR-3 = system: OVCAR-3
SF-539 = system: SF-539
OVCAR-4 = system: OVCAR-4
NCI-H522 = system: NCI-H522
MDA-MB-435 = system: MDA-MB-435

SMILES | GI50 (SK-MEL-28) | GI50 (TK-10) | GI50 (PC-3) | GI50 (SNB-75) | GI50 (SW-620) | GI50 (NCI-H226) | GI50 (SNB-19) | GI50 (K562) | GI50 (SR) | GI50 (RXF 393) | GI50 (IGROV-1) | GI50 (SF-295) | GI50 (SK-OV-3) | GI50 (SF-268) | GI50 (CCRF-CEM) | GI50 (OVCAR-3) | GI50 (SF-539) | GI50 (OVCAR-4) | GI50 (NCI-H522) | GI50 (MDA-MB-435)
CCOC(=O)c1c(N)sc2c1C(C)(C(=O)OCC)CC2 (centres undefined) | > 100 µM (inactive) | > 100 µM (inactive) | > 100 µM (inactive) | 88.3 µM (inactive) | > 100 µM (inactive) | > 100 µM (inactive) | > 100 µM (inactive) | > 100 µM (inactive) | 92.7 µM (inactive) | > 100 µM (inactive) | > 100 µM (inactive) |  |  |  |  |  |  |  |  | 
NN/C(=N\S(=O)(=O)c1cc(Cl)c(Oc2ccc([N+](=O)[O-])cc2Cl)c(Cl)c1)Nc1ccc(Cl)cc1 | 21.5 µM (inactive) | 19.3 µM (inactive) | 26.5 µM (inactive) | 23.7 µM (inactive) | 28.7 µM (inactive) | 15.9 µM (inactive) | 23.8 µM (inactive) | 27 µM (inactive) | 16.6 µM (inactive) | 13.2 µM (inactive) | 20.2 µM (inactive) | 20.4 µM (inactive) | 44.7 µM (inactive) | 19.5 µM (inactive) | 10.8 µM (inactive) | 15.9 µM (inactive) | 14.7 µM (inactive) | 17.9 µM (inactive) |  | 
NS(=O)(=O)c1nnc(NC(=O)c2ccccc2)s1 | > 100 µM (inactive) | > 100 µM (inactive) |  |  | > 100 µM (inactive) | > 100 µM (inactive) | > 100 µM (inactive) | > 100 µM (inactive) | > 100 µM (inactive) | > 100 µM (inactive) |  | > 100 µM (inactive) | > 100 µM (inactive) | > 100 µM (inactive) |  | > 100 µM (inactive) | > 100 µM (inactive) | 0.536 µM (active) | > 100 µM (inactive) | > 100 µM (inactive)
c1ccc(-c2cnc(-c3ccc(-c4ncc(-c5ccccc5)o4)cc3)o2)cc1 | > 100 µM (inactive) | > 100 µM (inactive) | > 100 µM (inactive) | 56.5 µM (inactive) | > 100 µM (inactive) | > 100 µM (inactive) | > 100 µM (inactive) | > 100 µM (inactive) |  | > 100 µM (inactive) | > 100 µM (inactive) | > 100 µM (inactive) | > 100 µM (inactive) | > 100 µM (inactive) | > 100 µM (inactive) | > 100 µM (inactive) |  | > 100 µM (inactive) | > 100 µM (inactive) | > 100 µM (inactive)
CN(C)CCNc1ccc(NCC[N+](C)(C)Cc2ccc([N+](=O)[O-])cc2)c2c1C(=O)c1c(O)ccc(O)c1C2=O | > 100 µM (inactive) |  | 56 µM (inactive) | 19.6 µM (inactive) | 27.9 µM (inactive) | 15.3 µM (inactive) | > 100 µM (inactive) | 6.08 µM (inactive) |  |  | 40.3 µM (inactive) |  |  | 19.8 µM (inactive) | 11.5 µM (inactive) | > 100 µM (inactive) |  | > 100 µM (inactive) |  | 35.2 µM (inactive)
CN1C(=O)c2c(ccc3c2OCO3)C2C(O)Cc3cc4c(cc3C21)OCO4 (centres undefined) | 3.22 µM (inactive) | 7.8 µM (inactive) | 2.58 µM (inactive) | 1.89 µM (inactive) | 3.79 µM (inactive) | 2.15 µM (inactive) | 3.21 µM (inactive) | 4.71 µM (inactive) |  |  | 2.36 µM (inactive) | 1.71 µM (inactive) | 2.98 µM (inactive) | 8.75 µM (inactive) | 3.37 µM (inactive) | 5.2 µM (inactive) | 4.57 µM (inactive) | > 100 µM (inactive) | 2.87 µM (inactive) | 1.61 µM (inactive)
O=C(O)c1cccc(Nc2c(C(=O)O)cccc2[N+](=O)[O-])c1 |  | > 100 µM (inactive) | > 100 µM (inactive) | > 100 µM (inactive) |  |  | > 100 µM (inactive) | > 100 µM (inactive) | > 100 µM (inactive) |  | > 100 µM (inactive) | > 100 µM (inactive) | > 100 µM (inactive) |  | > 100 µM (inactive) | > 100 µM (inactive) | > 100 µM (inactive) | > 100 µM (inactive) | > 100 µM (inactive) | 
NC(=O)C(=O)n1ncc(Cl)c(Cl)c1=O | 23.5 µM (inactive) | 31.8 µM (inactive) |  | > 42.8 µM (inactive) | 13.3 µM (inactive) | > 69.5 µM (inactive) | > 79.3 µM (inactive) | 9.46 µM (inactive) | 19.2 µM (inactive) | > 23.5 µM (inactive) | > 56.6 µM (inactive) | 13.6 µM (inactive) | > 100 µM (inactive) | 46 µM (inactive) | 6.03 µM (inactive) | 32.2 µM (inactive) | 40.2 µM (inactive) | 29.4 µM (inactive) | 7.73 µM (inactive) | > 100 µM (inactive)
CC1=CC[C@@]2(CO)[C@@H]([C@@H]1C)[C@H]1CC[C@@H]3[C@@]4(C)CC[C@H](O)C(C)(C)[C@@H]4CC[C@@]3(C)[C@]1(C)C[C@@H]2O | 43.9 µM (inactive) | 18.4 µM (inactive) | 13.3 µM (inactive) |  | 35.6 µM (inactive) | 27.2 µM (inactive) | 35.1 µM (inactive) | 45.7 µM (inactive) |  | 7.08 µM (inactive) | 29.3 µM (inactive) | 17 µM (inactive) | 14.4 µM (inactive) | 21 µM (inactive) | 41.1 µM (inactive) | 31.5 µM (inactive) |  | 20.8 µM (inactive) | 8.91 µM (inactive) | 40.2 µM (inactive)
